Data from the NIST ThermoML archive (doi:10.1021/je600554h).
± gives the expanded uncertainty stated by the source.

Assay: xn = mol fraction of the nth substance listed
Conditions: 100 kPa, Liquid; for viscosity: Capillary tube (Ostwald / Ubbelohde) method

COC(C)(C)C [2-methoxy-2-methylpropane] + CCCCCCCC
Conditions | mass density [kg/m3] | viscosity [mPa·s]
298.15 K, x1 = 0.8975 | 729.408 ± 0.59 | –
303.15 K, x1 = 0.1019 | – | 0.468 ± 0.009
303.15 K, x1 = 0.1059 | 696.633 ± 0.63 | –
303.15 K, x1 = 0.2123 | 699.177 ± 0.62 | –
303.15 K, x1 = 0.2189 | – | 0.447 ± 0.009
303.15 K, x1 = 0.3019 | 701.546 ± 0.62 | –
303.15 K, x1 = 0.3026 | – | 0.43 ± 0.009
303.15 K, x1 = 0.4029 | – | 0.414 ± 0.009
303.15 K, x1 = 0.4099 | 704.666 ± 0.61 | –
303.15 K, x1 = 0.4995 | – | 0.397 ± 0.008
303.15 K, x1 = 0.5053 | 707.798 ± 0.61 | –
303.15 K, x1 = 0.6005 | 711.146 ± 0.6 | –
303.15 K, x1 = 0.6099 | – | 0.382 ± 0.008
303.15 K, x1 = 0.6934 | 714.806 ± 0.6 | –
303.15 K, x1 = 0.7072 | – | 0.367 ± 0.008
303.15 K, x1 = 0.7967 | 719.238 ± 0.6 | –
303.15 K, x1 = 0.8975 | 724.303 ± 0.59 | –
308.15 K, x1 = 0.1019 | – | 0.443 ± 0.009
308.15 K, x1 = 0.1059 | 692.484 ± 0.64 | –
308.15 K, x1 = 0.2123 | 694.926 ± 0.63 | –
308.15 K, x1 = 0.2189 | – | 0.425 ± 0.009
308.15 K, x1 = 0.3019 | 697.212 ± 0.62 | –
308.15 K, x1 = 0.3026 | – | 0.409 ± 0.009
308.15 K, x1 = 0.4029 | – | 0.393 ± 0.008
308.15 K, x1 = 0.4099 | 700.213 ± 0.62 | –
308.15 K, x1 = 0.4995 | – | 0.376 ± 0.008
308.15 K, x1 = 0.5053 | 703.231 ± 0.61 | –
308.15 K, x1 = 0.6005 | 706.458 ± 0.61 | –
308.15 K, x1 = 0.6099 | – | 0.362 ± 0.008
308.15 K, x1 = 0.6934 | 709.988 ± 0.6 | –
308.15 K, x1 = 0.7967 | 714.261 ± 0.6 | –
308.15 K, x1 = 0.8975 | 719.151 ± 0.6 | –
313.15 K, x1 = 0.1019 | – | 0.42 ± 0.009
313.15 K, x1 = 0.1059 | 688.303 ± 0.64 | –
313.15 K, x1 = 0.2123 | 690.652 ± 0.63 | –
313.15 K, x1 = 0.2189 | – | 0.402 ± 0.009
313.15 K, x1 = 0.3019 | 692.842 ± 0.63 | –
313.15 K, x1 = 0.3026 | – | 0.387 ± 0.008
313.15 K, x1 = 0.4029 | – | 0.374 ± 0.008
313.15 K, x1 = 0.4099 | 695.728 ± 0.62 | –
313.15 K, x1 = 0.4995 | – | 0.358 ± 0.008
313.15 K, x1 = 0.5053 | 698.629 ± 0.62 | –
313.15 K, x1 = 0.6005 | 701.736 ± 0.61 | –
313.15 K, x1 = 0.6934 | 705.127 ± 0.61 | –
313.15 K, x1 = 0.7967 | 709.24 ± 0.61 | –
313.15 K, x1 = 0.8975 | 713.95 ± 0.6 | –
318.15 K, x1 = 0.1019 | – | 0.398 ± 0.009
318.15 K, x1 = 0.1059 | 684.108 ± 0.65 | –
318.15 K, x1 = 0.2123 | 686.345 ± 0.64 | –
318.15 K, x1 = 0.2189 | – | 0.381 ± 0.008
318.15 K, x1 = 0.3019 | 688.444 ± 0.63 | –
318.15 K, x1 = 0.3026 | – | 0.367 ± 0.008
318.15 K, x1 = 0.4029 | – | 0.355 ± 0.008
318.15 K, x1 = 0.4099 | 691.207 ± 0.63 | –
318.15 K, x1 = 0.5053 | 693.985 ± 0.62 | –
318.15 K, x1 = 0.6005 | 696.968 ± 0.62 | –
318.15 K, x1 = 0.6934 | 700.224 ± 0.61 | –
318.15 K, x1 = 0.7967 | 704.169 ± 0.61 | –
318.15 K, x1 = 0.8975 | 708.696 ± 0.61 | –
323.15 K, x1 = 0.1019 | – | 0.377 ± 0.008
323.15 K, x1 = 0.1059 | 679.876 ± 0.65 | –
323.15 K, x1 = 0.2123 | 682.017 ± 0.65 | –
323.15 K, x1 = 0.2189 | – | 0.361 ± 0.008
323.15 K, x1 = 0.3019 | 684.017 ± 0.64 | –
323.15 K, x1 = 0.3026 | – | 0.349 ± 0.008
323.15 K, x1 = 0.4099 | 686.655 ± 0.63 | –
323.15 K, x1 = 0.5053 | 689.306 ± 0.63 | –
323.15 K, x1 = 0.6005 | 692.159 ± 0.62 | –
323.15 K, x1 = 0.6934 | 695.271 ± 0.62 | –
323.15 K, x1 = 0.7967 | 699.039 ± 0.61 | –
328.15 K, x1 = 0.1019 | – | 0.359 ± 0.008
328.15 K, x1 = 0.1059 | 675.617 ± 0.66 | –
328.15 K, x1 = 0.2123 | 677.665 ± 0.65 | –
328.15 K, x1 = 0.2189 | – | 0.344 ± 0.008
328.15 K, x1 = 0.3019 | 679.549 ± 0.65 | –
328.15 K, x1 = 0.4099 | 682.067 ± 0.64 | –
328.15 K, x1 = 0.5053 | 684.587 ± 0.64 | –
328.15 K, x1 = 0.6005 | 687.304 ± 0.63 | –
328.15 K, x1 = 0.6934 | 690.272 ± 0.63 | –
333.15 K, x1 = 0.1019 | – | 0.342 ± 0.008
333.15 K, x1 = 0.1059 | 671.333 ± 0.67 | –
333.15 K, x1 = 0.2123 | 673.25 ± 0.66 | –
333.15 K, x1 = 0.3019 | 675.046 ± 0.65 | –
333.15 K, x1 = 0.4099 | 677.434 ± 0.65 | –
333.15 K, x1 = 0.5053 | 679.825 ± 0.64 | –
333.15 K, x1 = 0.6005 | 682.397 ± 0.64 | –
338.15 K, x1 = 0.1059 | 667.018 ± 0.67 | –
338.15 K, x1 = 0.2123 | 668.815 ± 0.66 | –
338.15 K, x1 = 0.3019 | 670.514 ± 0.66 | –
338.15 K, x1 = 0.4099 | 672.758 ± 0.65 | –
343.15 K, x1 = 0.1059 | 662.68 ± 0.68 | –
343.15 K, x1 = 0.2123 | 664.349 ± 0.67 | –
343.15 K, x1 = 0.3019 | 665.923 ± 0.67 | –
343.15 K, x1 = 0.4099 | 668.038 ± 0.66 | –
348.15 K, x1 = 0.1059 | 658.279 ± 0.68 | –
348.15 K, x1 = 0.2123 | 659.83 ± 0.68 | –
348.15 K, x1 = 0.3019 | 661.299 ± 0.67 | –
353.15 K, x1 = 0.1059 | 653.843 ± 0.69 | –
353.15 K, x1 = 0.2123 | 655.28 ± 0.68 | –
353.15 K, x1 = 0.3019 | 656.638 ± 0.68 | –
358.15 K, x1 = 0.1059 | 649.405 ± 0.7 | –
358.15 K, x1 = 0.2123 | 650.681 ± 0.69 | –
358.15 K, x1 = 0.3019 | 651.917 ± 0.69 | –
363.15 K, x1 = 0.1059 | 644.85 ± 0.7 | –
363.15 K, x1 = 0.2123 | 646.031 ± 0.7 | –
363.15 K, x1 = 0.3019 | 647.14 ± 0.69 | –
